What was measured:
[1] = molecular target: T1, αllbβ3 integrin (Homo sapiens, UniProt P05106+P08514); assay: ELISA: inhibition of binding of αllbβ3 integrin membrane preparation to coated extracellular matrix protein; conditions: human platelet membrane preparation
T1 construct: Human platelet membrane preparations were used as a source of αllbβ3 integrin; from tissue; host or cells: human platelets (membrane preparation)
Method in brief: (§1)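 Wells were coated with fibrinogen or vitronectin (10 µg/well), and integrin binding was measured by ELISA. αIIbβ3 came from human platelet membranes and αVβ3 from WM-115 cells, each preincubated with compound. Bound integrin was detected with a rabbit anti-β3 antibody, an HRP secondary and a colorimetric readout.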

[2] = molecular target: T2, αVβ3 integrin (Homo sapiens, UniProt P05106+P06756); assay: ELISA: inhibition of binding of αVβ3 integrin (source WM-115 cell line) to coated extracellular matrix protein; conditions: WM-115 cell line as integrin source
T2 construct: the cell line WM-115 was used as a source of αVβ3 integrin; endogenous in cells; host or cells: WM-115 cell line
T2 sequence (P06756 31-889 limits assumed): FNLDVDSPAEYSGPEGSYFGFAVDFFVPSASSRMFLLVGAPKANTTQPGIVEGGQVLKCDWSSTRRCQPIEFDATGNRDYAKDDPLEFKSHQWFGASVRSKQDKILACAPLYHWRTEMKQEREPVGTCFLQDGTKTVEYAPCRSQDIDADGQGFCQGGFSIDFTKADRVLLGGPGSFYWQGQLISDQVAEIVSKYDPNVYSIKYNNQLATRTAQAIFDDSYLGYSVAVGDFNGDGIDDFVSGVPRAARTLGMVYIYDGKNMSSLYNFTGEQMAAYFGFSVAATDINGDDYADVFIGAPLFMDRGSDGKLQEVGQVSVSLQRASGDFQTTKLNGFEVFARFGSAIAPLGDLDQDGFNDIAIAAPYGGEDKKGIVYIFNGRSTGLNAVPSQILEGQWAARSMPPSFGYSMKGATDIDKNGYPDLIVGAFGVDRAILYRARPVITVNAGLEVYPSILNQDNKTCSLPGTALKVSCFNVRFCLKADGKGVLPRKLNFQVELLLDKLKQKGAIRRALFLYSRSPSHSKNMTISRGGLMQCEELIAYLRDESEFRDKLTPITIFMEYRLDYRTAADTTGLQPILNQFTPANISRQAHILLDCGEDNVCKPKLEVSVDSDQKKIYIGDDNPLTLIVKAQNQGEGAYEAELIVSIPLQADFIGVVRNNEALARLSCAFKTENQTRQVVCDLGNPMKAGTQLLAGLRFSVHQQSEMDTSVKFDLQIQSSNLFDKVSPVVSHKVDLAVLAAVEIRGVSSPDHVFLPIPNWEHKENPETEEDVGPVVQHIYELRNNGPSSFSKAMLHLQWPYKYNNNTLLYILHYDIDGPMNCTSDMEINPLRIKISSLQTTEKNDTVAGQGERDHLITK
T2 sequence (P06756 891-1048 partner limits assumed): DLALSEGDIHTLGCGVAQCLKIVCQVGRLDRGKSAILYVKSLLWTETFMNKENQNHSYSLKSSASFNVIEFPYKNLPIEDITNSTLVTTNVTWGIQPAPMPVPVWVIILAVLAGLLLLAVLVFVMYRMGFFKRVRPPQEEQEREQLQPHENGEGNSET
T2 sequence (P05106 27-788): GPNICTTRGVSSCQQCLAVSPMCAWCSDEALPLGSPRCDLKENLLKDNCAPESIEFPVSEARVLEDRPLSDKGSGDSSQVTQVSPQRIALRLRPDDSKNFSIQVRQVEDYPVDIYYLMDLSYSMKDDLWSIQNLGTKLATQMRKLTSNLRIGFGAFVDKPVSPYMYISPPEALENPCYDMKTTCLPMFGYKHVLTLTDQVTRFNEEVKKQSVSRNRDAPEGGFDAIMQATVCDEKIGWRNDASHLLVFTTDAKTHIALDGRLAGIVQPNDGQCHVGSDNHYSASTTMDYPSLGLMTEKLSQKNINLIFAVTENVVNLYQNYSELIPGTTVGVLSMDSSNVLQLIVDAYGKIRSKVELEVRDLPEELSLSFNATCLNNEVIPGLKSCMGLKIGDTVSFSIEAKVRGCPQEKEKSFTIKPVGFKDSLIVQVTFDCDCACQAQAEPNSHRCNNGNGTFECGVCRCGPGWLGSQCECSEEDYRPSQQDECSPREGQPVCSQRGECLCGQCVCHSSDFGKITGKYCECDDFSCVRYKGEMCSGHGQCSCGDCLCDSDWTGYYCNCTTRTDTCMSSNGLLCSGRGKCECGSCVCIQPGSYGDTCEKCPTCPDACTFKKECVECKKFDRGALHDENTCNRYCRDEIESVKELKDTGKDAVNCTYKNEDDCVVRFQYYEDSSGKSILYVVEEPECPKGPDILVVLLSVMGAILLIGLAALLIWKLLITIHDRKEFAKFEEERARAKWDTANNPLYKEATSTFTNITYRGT
Method in brief: as §1

T1 sequence (P08514 32-887 limits assumed): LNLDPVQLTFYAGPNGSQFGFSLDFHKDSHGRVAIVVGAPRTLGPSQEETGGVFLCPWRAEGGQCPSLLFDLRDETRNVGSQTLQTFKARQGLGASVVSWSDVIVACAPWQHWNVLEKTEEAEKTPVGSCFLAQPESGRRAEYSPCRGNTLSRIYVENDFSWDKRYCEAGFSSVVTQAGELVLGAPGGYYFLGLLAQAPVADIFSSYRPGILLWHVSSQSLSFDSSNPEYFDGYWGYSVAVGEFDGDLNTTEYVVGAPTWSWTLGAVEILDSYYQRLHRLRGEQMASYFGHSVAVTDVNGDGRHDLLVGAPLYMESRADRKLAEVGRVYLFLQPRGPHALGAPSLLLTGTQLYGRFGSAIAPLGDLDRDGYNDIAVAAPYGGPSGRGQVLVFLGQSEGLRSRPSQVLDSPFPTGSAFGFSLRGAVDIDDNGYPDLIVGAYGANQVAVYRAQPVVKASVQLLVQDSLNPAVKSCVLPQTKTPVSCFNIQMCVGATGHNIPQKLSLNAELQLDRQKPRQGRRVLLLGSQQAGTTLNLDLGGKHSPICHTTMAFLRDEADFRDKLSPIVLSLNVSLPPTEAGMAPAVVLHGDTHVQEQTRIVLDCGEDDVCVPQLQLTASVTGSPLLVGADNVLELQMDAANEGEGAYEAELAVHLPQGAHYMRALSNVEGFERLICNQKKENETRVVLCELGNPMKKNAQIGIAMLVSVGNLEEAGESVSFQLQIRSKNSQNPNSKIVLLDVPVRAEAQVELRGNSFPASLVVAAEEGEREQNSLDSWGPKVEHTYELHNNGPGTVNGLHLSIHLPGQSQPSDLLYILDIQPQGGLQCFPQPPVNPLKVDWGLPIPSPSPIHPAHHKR
T1 sequence (P08514 891-1039 partner limits assumed): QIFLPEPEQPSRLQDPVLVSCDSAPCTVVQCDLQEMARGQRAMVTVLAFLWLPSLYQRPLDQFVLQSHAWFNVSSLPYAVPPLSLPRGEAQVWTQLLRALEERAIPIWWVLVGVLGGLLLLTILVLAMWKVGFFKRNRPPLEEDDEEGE
T1 sequence (P05106 27-788): as the sequence (P05106 27-788) above

SMILES	INHIBITION @ 250 uM RECEPTOR allBb3 SUBSTRATE FIBRINOGEN [1]	INHIBITION 250 uM RECEPTOR allBb3 SUBSTRATE VITRONECTIN [1]	INHIBITION 250 uM RECEPTOR aVb3 SUBSTRATE FIBRINOGEN [2]
COC1OC(COCC(=O)O)C(O)C(OCc2ccccc2)C1NC(=O)CCCNC(=N)N (single isomer, unassigned) [Compound 125]	+ (36% to 60% inhibition at 250 micromolar)	+++ (81% to 100% inhibition at 250 micromolar)	+ (36% to 60% inhibition at 250 micromolar)
COC(=O)COCC1OC(OC)C(NC(=O)CCCNC(=N)N)C(OCc2ccccc2)C1O (single isomer, unassigned) [Compound 126]	++ (61% to 80% inhibition at 250 micromolar)	+++ (81% to 100% inhibition at 250 micromolar)	+++ (81% to 100% inhibition at 250 micromolar)
COC1OC(COCC(=O)O)C(O)C(OCc2ccccc2)C1NC(=O)c1ccc(CN)cc1 (single isomer, unassigned) [Compound 127]	− (0% to 35% inhibition at 250 micromolar)	− (0% to 35% inhibition at 250 micromolar)	− (0% to 35% inhibition at 250 micromolar)
COC1OC(COCC(=O)O)C(O)C(OCc2ccccc2)C1NC(=O)c1ccc(CNC(=N)N)cc1 (single isomer, unassigned) [Compound 128]	− (0% to 35% inhibition at 250 micromolar)	+++ (81% to 100% inhibition at 250 micromolar)	− (0% to 35% inhibition at 250 micromolar)
COC1OC(COCC(=O)O)C(O)C(OCc2ccccc2)C1NC(=O)c1ccc(CNC(=N)N)cc1 (single isomer, unassigned) [Compound 129]	− (0% to 35% inhibition at 250 micromolar)	+++ (81% to 100% inhibition at 250 micromolar)	− (0% to 35% inhibition at 250 micromolar)
COC1OC(COCC(=O)O)C(O)C(OCc2ccccc2)C1NC(=O)c1cc(N)cc(N)c1 (single isomer, unassigned) [Compound 130]	− (0% to 35% inhibition at 250 micromolar)	+++ (81% to 100% inhibition at 250 micromolar)	− (0% to 35% inhibition at 250 micromolar)
COC1OC(COCC(=O)O)C(O)C(OCc2ccccc2)C1NC(=O)c1cc(N)cc(N)c1 (single isomer, unassigned) [Compound 131]	+ (36% to 60% inhibition at 250 micromolar)	+++ (81% to 100% inhibition at 250 micromolar)	− (0% to 35% inhibition at 250 micromolar)
COC1OC(COCC(=O)O)C(O)C(OCc2ccccc2)C1NC(=O)C1CCNCC1 (single isomer, unassigned) [Compound 134]	+++ (81% to 100% inhibition at 250 micromolar)	+++ (81% to 100% inhibition at 250 micromolar)	− (0% to 35% inhibition at 250 micromolar)
COC1OC(COCC(=O)O)C(O)C(OCc2ccccc2)C1NC(=O)C1CCNCC1 (single isomer, unassigned) [Compound 136]	+++ (81% to 100% inhibition at 250 micromolar)		− (0% to 35% inhibition at 250 micromolar)
COC1OC(COCC(=O)O)C(O)C(OCc2ccccc2)C1NC(=O)C1CCC(CN)CC1 (single isomer, unassigned) [Compound 137]	+++ (81% to 100% inhibition at 250 micromolar)	+++ (81% to 100% inhibition at 250 micromolar)	++ (61% to 80% inhibition at 250 micromolar)
COC1OC(COCC(=O)O)C(O)C(OCc2ccccc2)C1NC(=O)C1CCC(CN)CC1 (single isomer, unassigned) [Compound 138]	− (0% to 35% inhibition at 250 micromolar)	+++ (81% to 100% inhibition at 250 micromolar)	− (0% to 35% inhibition at 250 micromolar)
Nc1cccc(C(=O)N[C@H]2C(O)O[C@H](COCC(=O)O)[C@@H](O)[C@@H]2OCc2ccc(Br)cc2)c1 (some centres unmarked) [Compound 2]	++ (61% to 80% inhibition at 250 micromolar)	+++ (81% to 100% inhibition at 250 micromolar)	++ (61% to 80% inhibition at 250 micromolar)
Nc1cccc(COC[C@H]2OC[C@H](NC(=O)c3ccccc3)[C@@H](OCC(=O)O)[C@@H]2O)c1 [Compound 56]	− (0% to 35% inhibition at 250 micromolar)	+++ (81% to 100% inhibition at 250 micromolar)	++ (61% to 80% inhibition at 250 micromolar)
CCOC1O[C@H](COCc2cccc(N)c2)[C@@H](O)[C@H](OCc2ccc(C(=O)O)cc2)[C@H]1NC(=O)c1ccc(Cl)cc1 (some centres unmarked) [Compound 65]	− (0% to 35% inhibition at 250 micromolar)	+++ (81% to 100% inhibition at 250 micromolar)	− (0% to 35% inhibition at 250 micromolar)
Nc1cccc(COC2C(NC(=O)c3ccc(Cl)cc3)COC(COCC(=O)O)C2O)c1 (centres unmarked) [Compound 80]	++ (61% to 80% inhibition at 250 micromolar)	+++ (81% to 100% inhibition at 250 micromolar)	+ (36% to 60% inhibition at 250 micromolar)

Source: US20080176936A1, “Classes of Compounds that Interact with Integrins” (priority 2005, published 2008)
